Results from patent US11319283B2, “Substituted cyclobutylbenzene compounds as indoleamine 2,3-dioxygenase (IDO) inhibitors” (MERCK SHARP & DOHME CORP., priority 2017, dated 2022).

Legend:
TDO = molecular target: T1, TDO (Homo sapiens, UniProt P48775); assay: TDO Cellular Assay in Frozen SW48 Cells; format: cell-based; details: 300 uM L-tryptophan, about 48 hours, fluorescence readout
T1 construct: endogenous in cells; host or cells: SW48 cells (A2780 cells as control with minimal TDO activity)
Procedure: TDO Cellular Assay in Frozen SW48 Cells
SW48 cells were cultured in complete RPMI culture medium (90% RPMI, 10% heat-inactivated fetal bovine serum).
Compounds to be tested were serially diluted in ten 3-fold steps in DMSO starting from 10 mM DMSO stocks in Echo low volume plate(s). […] The cells were spun down at 350 g in a table top centrifuge for 5 minutes and suspended in same volume of RPMI assay medium. […] Sterile L-tryptophan (Sigma, Cat # T0254) was added to the cells with final concentration of 300 uM.
SW48 and A2780 cells were dispensed to the respective wells of 384-well assay plates containing the compounds. The plates were incubated for about 48 hours at a 37° C., 5% CO2 incubator. Afterwards, 12 μL of 0.5 M ethyl isonipecotate (Sigma Aldrich, Cat # E33505) in dimethyl sulfoxide were added into each well and the plates were sealed and incubated at 37° C. without CO2 overnight. The plates were centrifuged for 1 minute at 200×g. The resulting fluorescence was measured in a Spectramax plate reader (Molecular Devices) with a 400 nm excitation filter and a 510 nm emission filter.
The fluorescence intensity of each well was corrected for the background observed in wells with A2780 cells and was expressed as a fraction of the intensity observed in wells of SW48 cells and DMSO only. Potencies were calculated by linear least squares fit to the four parameter logistic IC50 equation.

IDO1 = IDO1 (Homo sapiens, UniProt P14902); assay: IDO1 Cellular Assay in Hela Cells Stimulated with IFNγ; format: cell-based; design: endogenous in cells; host or cells: HeLa cells stimulated with IFNγ (100 ng/mL); details: Hela cells stimulated with IFNγ 100 ng/mL, 300 uM L-tryptophan, about 48 hours, fluorescence readout
Chain of IDO1 (P14902 whole entry): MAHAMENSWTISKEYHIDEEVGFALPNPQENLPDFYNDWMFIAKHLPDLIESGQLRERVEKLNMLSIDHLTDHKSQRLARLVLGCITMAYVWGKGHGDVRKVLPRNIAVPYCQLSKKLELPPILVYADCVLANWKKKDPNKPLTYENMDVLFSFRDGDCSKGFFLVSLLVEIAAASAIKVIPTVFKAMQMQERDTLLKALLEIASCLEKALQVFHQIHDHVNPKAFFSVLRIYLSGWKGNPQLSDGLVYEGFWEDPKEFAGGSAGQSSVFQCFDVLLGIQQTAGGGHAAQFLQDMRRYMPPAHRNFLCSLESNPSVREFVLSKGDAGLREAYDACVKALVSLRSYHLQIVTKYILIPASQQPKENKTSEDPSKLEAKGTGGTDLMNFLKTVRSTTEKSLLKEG
Procedure: IDO1 Cellular Assay in Hela Cells Stimulated with IFNγ
Hela cells were cultured in complete Hela culture medium (90% EMEM, 10% heat-inactivated fetal bovine serum) and expanded to about 1×10^9 cells. The cells were then collected and frozen down at 1×10^7 cells/vial in 1 mL frozen medium (90% complete Hela culture medium, 10% DMSO)
Compounds to be tested were serially diluted in ten 3-fold steps in DMSO starting from 10 mM DMSO stocks in Echo low volume plate(s).
Frozen Hela cells were thawed and transferred into Hela assay medium (99% complete Hela culture medium, 1% Pen/Strep) with 20 mL medium/vial of cells. The cells were spun down at 250 g in a table top centrifuge for 5 min and suspended in same volume of Hela assay medium. The cells were then counted and adjusted to a density of 2×10^5 cells/ml in Hela assay medium. Sterile L-tryptophan were added to the cells with final concentration of 300 uM L-tryptophan. A small aliquot (2 mL/plate) of Hela cells were set aside and were not treated with IFNγ, to serve as the Max-E control.
Hela cells with and without IFNγ were dispensed to the respective wells of 384-well assay plates containing the compounds. The plates were incubated for about 48 hours at a 37° C., 5% CO2 incubator. Afterwards, […] of 0.5 M methyl isonipecotate in dimethyl sulfoxide were added into each well and the plates were sealed and incubated at 37° C. without CO2 overnight. The plates were centrifuged for 1 min at 200×g. The resulting fluorescence was measured in a Spectramax plate reader (Molecular Devices) with a 400 nm excitation filter and a 510 nm emission filter.
Potencies were calculated by linear least squares fit to the four parameter logistic IC50 equation.

T1 sequence (P48775 whole entry): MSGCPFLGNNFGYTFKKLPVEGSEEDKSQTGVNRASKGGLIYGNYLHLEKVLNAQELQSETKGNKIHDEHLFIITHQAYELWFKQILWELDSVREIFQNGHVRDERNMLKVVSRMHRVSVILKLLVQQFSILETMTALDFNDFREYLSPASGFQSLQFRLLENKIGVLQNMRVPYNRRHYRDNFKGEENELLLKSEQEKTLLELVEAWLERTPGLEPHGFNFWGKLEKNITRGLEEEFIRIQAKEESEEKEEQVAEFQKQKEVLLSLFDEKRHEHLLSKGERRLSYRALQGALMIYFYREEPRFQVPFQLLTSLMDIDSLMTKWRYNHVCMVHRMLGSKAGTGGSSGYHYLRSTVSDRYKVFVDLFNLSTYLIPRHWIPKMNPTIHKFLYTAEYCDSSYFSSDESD

`O=C(Nc1ccc(C2(C(=O)Nc3ccc(F)nc3)CCC2)cc1)c1cccc(Cl)c1` [Example 29, 3-chloro-N-(4-{1-[(6-fluoropyridin-3-yl)carbamoyl]cyclobutyl}phenyl)benzamide] was tested, and the IC50 (TDO) was ≥ 10000 nM and the IC50 (IDO1) was 4 nM.

In the case of `CCC1CC1NC(=O)C1(c2ccc(NC(=O)c3cccc(Cl)c3)cc2)CCC1` (centres unmarked) [Example 31, 3-chloro-N-(4-{1-[(2-ethylcyclopropyl)carbamoyl]cyclobutyl}phenyl)benzamide], the IC50 (TDO) is reported as ≥ 10000 nM and the IC50 (IDO1) is reported as 8 nM.

For `CCOC1CC1NC(=O)C1(c2ccc(NC(=O)c3cccc(Cl)c3)cc2)CCC1` (centres unmarked) [Example 36, 3-chloro-N-(4-{1-[(2-ethoxycyclopropyl)carbamoyl]cyclobutyl}phenyl) benzamide], the IC50 (TDO) was ≥ 10000 nM and the IC50 (IDO1) was 24 nM.

For `O=C(Nc1ccc(C2(C(=O)NC3CC3C(F)F)CCC2)cc1)c1cccc(Cl)c1` (centres unmarked) [Example 37, 3-chloro-N-[4-(1-{[2-(difluoromethyl)cyclopropyl]carbamoyl}cyclobutyl)phenyl] benzamide], the IC50 (TDO) was ≥ 10000 nM and the IC50 (IDO1) was 28 nM.

In the case of `O=C(Nc1ccc(C2(C(=O)NC3CCCOC3)CCC2)cc1)c1cccc(Cl)c1` (centres unmarked) [Example 40, 3-chloro-N-(4-{1-[(oxan-3-yl)carbamoyl]cyclobutyl}phenyl)benzamide], the IC50 (TDO) is reported as ≥ 10000 nM and the IC50 (IDO1) is reported as 39 nM.

For `CC1(C)CC(NC(=O)C2(c3ccc(NC(=O)c4cccc(Cl)c4)cc3)CCC2)CCO1` (centres unmarked) [Example 42, 3-chloro-N-(4-{1-[(2,2-dimethyloxan-4-yl)carbamoyl]cyclobutyl}phenyl)benzamide], the IC50 (TDO) was ≥ 10000 nM and the IC50 (IDO1) was 119 nM.

For `O=C(Nc1ccc(C2(C(=O)NC3CN(CC(F)(F)F)C3)CCC2)cc1)c1cccc(Cl)c1` [Example 44, 3-chloro-N-[4-(1-{[1-(2,2,2-trifluoroethyl)azetidin-3-yl]carbamoyl}cyclobutyl)phenyl]benzamide], the IC50 (TDO) was ≥ 10000 nM and the IC50 (IDO1) was 709 nM.

For `CCOC(C)CNC(=O)C1(c2ccc(NC(=O)c3cccc(Cl)c3)cc2)CCC1` (centres unmarked) [Example 45, 3-Chloro-N-(4-(1-((2-ethoxypropyl)carbamoyl)cyclobutyl)phenyl)benzamide], the IC50 (TDO) was ≥ 10000 nM and the IC50 (IDO1) was 58 nM.

For `O=C(Nc1ccc(C2(C(=O)NCC(F)(F)F)CCC2)cc1)c1cccc(Cl)c1` [Example 49, 3-chloro-N-(4-{1-[(2,2,2-trifluoroethyl)carbamoyl]cyclobutyl}phenyl) benzamide], the IC50 (TDO) was ≥ 10000 nM and the IC50 (IDO1) was 126 nM.

For `O=C(Nc1ccc(C2(C(=O)N[C@H]3CCOC3)CCC2)cc1)c1cccc(Cl)c1` [Example 51, 3-chloro-N-[4-(1-{[(3S)-oxolan-3-yl]carbamoyl}cyclobutyl)phenyl]benzamide], the IC50 (TDO) was ≥ 10000 nM and the IC50 (IDO1) was 404 nM.

For `O=C(Nc1ccc(C2(C(=O)N[C@@H]3CCOC3)CCC2)cc1)c1cccc(Cl)c1` [Example 52, 3-chloro-N-[4-(1-{[(3R)-oxolan-3-yl]carbamoyl}cyclobutyl)phenyl]benzamide], the IC50 (TDO) was ≥ 10000 nM and the IC50 (IDO1) was 427 nM.

`O=C(Nc1ccc(C2(C(=O)NS(=O)(=O)c3ccccc3)CCC2)cc1)c1cccc(Cl)c1` [Example 53, 3-chloro-N-(4-{1-[(phenylsulfonyl)carbamoyl]cyclobutyl}phenyl) benzamide] was tested, and the IC50 (TDO) was ≥ 10000 nM and the IC50 (IDO1) was 834 nM.

With `O=C(Nc1cccc(Cl)c1F)c1ccc(C2(C(=O)Nc3ccc(F)cn3)CCC2)cc1` [Example 59, N-(3-chloro-2-fluorophenyl)-4-(1-((5-fluoropyridin-2-yl)carbamoyl)cyclobutyl)benzamide] the IC50 (TDO) was ≥ 10000 nM and the IC50 (IDO1) was 17 nM.

In the case of `O=C(NC1CCCCC1)c1ccc(C2(C(=O)Nc3ccc(F)cn3)CCC2)cc1` [Example 60, N-cyclohexyl-4-{1-[(5-fluoropyridin-2-yl)carbamoyl]cyclobutyl} benzamide], the IC50 (TDO) is reported as ≥ 10000 nM and the IC50 (IDO1) is reported as 489 nM.

For `O=C(NC1CCC(F)(F)CC1)c1ccc(C2(C(=O)Nc3ccc(F)cn3)CCC2)cc1` [Example 61, N-(4,4-difluorocyclohexyl)-4-{1-[(5-fluoropyridin-2-yl)carbamoyl]cyclobutyl} benzamide], the IC50 (TDO) was ≥ 10000 nM and the IC50 (IDO1) was 1810 nM.

With `CCO[C@@H]1C[C@@H]1NC(=O)C1(c2ccc(NC(=O)c3cccc(Cl)c3)cc2)CC(F)(F)C1` [Example 64, 3-chloro-N-[4-(1-{[(1S,2R)-2-ethoxycyclopropyl]carbamoyl}-3,3-difluorocyclobutyl)phenyl] benzamide] the IC50 (TDO) was ≥ 10000 nM and the IC50 (IDO1) was 37 nM.

`CCOC1CC1NC(=O)C1(c2ccc(NC(=O)c3cccc(Cl)c3)cc2)CC(F)(F)C1` (centres unmarked) [Example 65] was tested, and the IC50 (TDO) was ≥ 10000 nM and the IC50 (IDO1) was 71 nM.

For `CCO[C@H]1C[C@H]1NC(=O)C1(c2ccc(NC(=O)c3cccc(Cl)c3)cc2)CC(F)(F)C1` [Example 66, 3-chloro-N-[4-(1-{[(1R,2S)-2-ethoxycyclopropyl]carbamoyl}-3,3-difluorocyclobutyl)phenyl] benzamide], the IC50 (TDO) was ≥ 10000 nM and the IC50 (IDO1) was 89 nM.

With `CCO[C@H]1C[C@@H]1NC(=O)C1(c2ccc(NC(=O)c3cccc(Cl)c3)cc2)CC(F)(F)C1` [Example 67, 3-chloro-N-[4-(1-{[(lS,2S)-2-ethoxycyclopropyl]carbamoyl}-3,3-difluorocyclobutyl)phenyl] benzamide] the IC50 (TDO) was ≥ 10000 nM and the IC50 (IDO1) was 207 nM.

With `CCO[C@@H]1C[C@H]1NC(=O)C1(c2ccc(NC(=O)c3cccc(Cl)c3)cc2)CC(F)(F)C1` [Example 68, 3-chloro-N-[4-(1-{[(1R,2R)-2-ethoxycyclopropyl]carbamoyl}-3,3-difluorocyclobutyl)phenyl] benzamide] the IC50 (TDO) was ≥ 10000 nM and the IC50 (IDO1) was 1440 nM.

In the case of `O=C(Nc1ccc(C2(C(=O)NCCC(F)(F)F)CC(F)(F)C2)cc1)c1cccc(Cl)c1` [Example 69, 3-chloro-N-(4-{3,3-difluoro-1-[(3,3,3-trifluoropropyl)carbamoyl]cyclobutyl}phenyl) benzamide], the IC50 (TDO) is reported as ≥ 10000 nM and the IC50 (IDO1) is reported as 56 nM.

In the case of `O=C(Nc1ccc(C2(C(=O)Nc3ccc(F)cc3)CC(F)(F)C2)cc1)c1cccc(F)c1` [Example 72, N-(4-(3,3-Difluoro-1-((4-fluorophenyl)carbamoyl)cyclobutyl)phenyl)-3-fluorobenzamide], the IC50 (TDO) is reported as ≥ 10000 nM and the IC50 (IDO1) is reported as 4 nM.

`N#Cc1cccc(C(=O)Nc2ccc(C3(C(=O)Nc4ccc(F)cc4)CC(F)(F)C3)cc2)c1` [Example 73, 3-cyano-N-(4-{3,3-difluoro-1-[(4-fluorophenyl)carbamoyl]cyclobutyl}phenyl) benzamide] was tested, and the IC50 (TDO) was ≥ 10000 nM and the IC50 (IDO1) was 4 nM.

`O=C(Nc1ccc(C2(C(=O)Nc3ccc(F)cc3)CC(F)(F)C2)cc1)c1cc(Cl)ccn1` [Example 74, 4-chloro-N-(4-{3,3-difluoro-1-[(4-fluorophenyl)carbamoyl]cyclobutyl}phenyl) pyridine-2-carboxamide] was tested, and the IC50 (TDO) was ≥ 10000 nM and the IC50 (IDO1) was 5 nM.

For `O=C(Nc1ccc(C2(C(=O)Nc3ccc(F)cc3)CC(F)(F)C2)cc1)c1cncc(Cl)c1` [Example 75, 5-chloro-N-(4-{3,3-difluoro-1-[(4-fluorophenyl)carbamoyl]cyclobutyl}phenyl) pyridine-3-carboxamide], the IC50 (TDO) was ≥ 10000 nM and the IC50 (IDO1) was 10 nM.

With `O=C(Nc1ccc(C2(C(=O)Nc3ccc(F)cc3)CC(F)(F)C2)cc1)c1ccnc(C(F)(F)F)c1` [Example 76, N-(4-{3,3-difluoro-1-[(4-fluorophenyl)carbamoyl]cyclobutyl}phenyl)-2-(trifluoromethyl) pyridine-4-carboxamide] the IC50 (TDO) was 7640 nM and the IC50 (IDO1) was 20 nM.

`CCCNC(=O)C1(c2ccc(NC(=O)c3ccc(F)c(Cl)c3)cc2)CCC1` [Example 78, 3-chloro-4-fluoro-N-{4-[1-(propylcarbamoyI)cyclobutyl]phenyl}benzamide] was tested, and the IC50 (TDO) was ≥ 10000 nM and the IC50 (IDO1) was 10 nM.

For `CCCNC(=O)C1(c2ccc(NC(=O)c3cc(F)cc(Cl)c3)cc2)CCC1` [Example 79, 3-chloro-5-fluoro-N-{4-[1-(propylcarbamoyl)cyclobutyl]phenyl}benzamide], the IC50 (TDO) was ≥ 10000 nM and the IC50 (IDO1) was 11 nM.
